From ChEMBL document CHEMBL1201862, “PubChem BioAssay data set” (2004)
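Method: 48-hour compound exposure of cells in 96-well plates, five concentrations, linear interpolation of endpoints. Abbreviation: GI50, concentration required for 50% inhibition of growth.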 Calls of active or inactive are those of the source. Rule as the data show it: active = GI50 up to about 1.1 µM and inactive = higher.

Assays:
Assay in all cases: growth of human tumour cells (NCI), 48 h
786-0 = system: 786-0
A498 = system: A498
A549 = system: A549
ACHN = system: ACHN
BT-549 = system: BT-549
CAKI-1 = system: CAKI-1
CCRF-CEM = system: CCRF-CEM
COLO 205 = system: COLO 205
DU-145 = system: DU-145
EKVX = system: EKVX
HCC 2998 = system: HCC 2998
HCT-116 = system: HCT-116
HCT-15 = system: HCT-15
HL-60 = system: HL-60
HOP-62 = system: HOP-62
HOP-92 = system: HOP-92
HT-29 = system: HT-29
Hs-578T = system: Hs-578T
IGROV-1 = system: IGROV-1
K562 = system: K562
KM12 = system: KM12
LOX IMVI = system: LOX IMVI
M14 = system: M14
MCF7 = system: MCF7
MDA-MB-231 = system: MDA-MB-231
MDA-MB-435 = system: MDA-MB-435
MDA-N = system: MDA-N
MOLT-4 = system: MOLT-4
Malme-3M = system: Malme-3M
NCI-H226 = system: NCI-H226
NCI-H23 = system: NCI-H23
NCI-H460 = system: NCI-H460
NCI-H522 = system: NCI-H522
NCI/ADR-RES = system: NCI/ADR-RES
OVCAR-3 = system: OVCAR-3
OVCAR-4 = system: OVCAR-4
OVCAR-5 = system: OVCAR-5
OVCAR-8 = system: OVCAR-8
PC-3 = system: PC-3
RPMI-8226 = system: RPMI-8226
RXF 393 = system: RXF 393
SF-268 = system: SF-268
SF-295 = system: SF-295
SF-539 = system: SF-539
SK-MEL-28 = system: SK-MEL-28
SK-MEL-2 = system: SK-MEL-2
SK-MEL-5 = system: SK-MEL-5
SK-OV-3 = system: SK-OV-3
SN12C = system: SN12C
SNB-19 = system: SNB-19
SNB-75 = system: SNB-75
SR = system: SR
SW-620 = system: SW-620
T47D = system: T47D
TK-10 = system: TK-10
U-251 = system: U-251
UACC-257 = system: UACC-257
UACC-62 = system: UACC-62
UO-31 = system: UO-31

`CN(CCc1ccc(Cl)c(Cl)c1)CCN(C)CCN1CCCC1` was tested, and the GI50 (786-0) was 8.99 µM (inactive), the GI50 (A498) was 13.1 µM (inactive) and the GI50 (A549) was 10.5 µM (inactive). For the same compound, the GI50 (ACHN) was 21.2 µM (inactive), the GI50 (BT-549) was 16.7 µM (inactive) and the GI50 (CAKI-1) was 15.2 µM (inactive). For the same compound, the GI50 (CCRF-CEM) was 3.72 µM (inactive), the GI50 (COLO 205) was 2.23 µM (inactive) and the GI50 (DU-145) was 25.6 µM (inactive). The GI50 (EKVX) was 16.6 µM (inactive), the GI50 (HCC 2998) was 1.96 µM (inactive) and the GI50 (HCT-116) was 5.62 µM (inactive). For the same compound, the GI50 (HCT-15) was 14.5 µM, the GI50 (HL-60) was 13.4 µM (inactive) and the GI50 (HOP-62) was 15.1 µM (inactive). The GI50 (HOP-92) was 3.66 µM (inactive), the GI50 (HT-29) was 2.38 µM (inactive) and the GI50 (Hs-578T) was 17.5 µM (inactive). The GI50 (IGROV-1) was 17.7 µM (inactive), the GI50 (K562) was 2.25 µM (inactive) and the GI50 (KM12) was 10.9 µM (inactive). The GI50 (LOX IMVI) was 4.76 µM (inactive), the GI50 (M14) was 4.86 µM (inactive) and the GI50 (MCF7) was 12.1 µM (inactive). For the same compound, the GI50 (MDA-MB-231) was 8.99 µM (inactive), the GI50 (MDA-MB-435) was 2.02 µM (inactive) and the GI50 (MDA-N) was 1.79 µM (inactive). For the same compound, the GI50 (MOLT-4) was 3.6 µM (inactive), the GI50 (Malme-3M) was 5.02 µM (inactive) and the GI50 (NCI-H226) was 20 µM (inactive). For the same compound, the GI50 (NCI-H23) was 14.2 µM (inactive), the GI50 (NCI-H460) was 8.93 µM (inactive) and the GI50 (NCI-H522) was 6.64 µM (inactive). The GI50 (NCI/ADR-RES) was 25.4 µM (inactive), the GI50 (OVCAR-3) was 23.3 µM (inactive) and the GI50 (OVCAR-4) was 28.5 µM (inactive). The GI50 (OVCAR-5) was 18.6 µM (inactive), the GI50 (OVCAR-8) was 21.7 µM (inactive) and the GI50 (PC-3) was 14.5 µM (inactive). For the same compound, the GI50 (RPMI-8226) was 2.86 µM (inactive), the GI50 (RXF 393) was 10 µM (inactive) and the GI50 (SF-268) was 6.5 µM (inactive). For the same compound, the GI50 (SF-295) was 16.5 µM (inactive), the GI50 (SF-539) was 4.08 µM (inactive) and the GI50 (SK-MEL-28) was 1.64 µM (inactive). The GI50 (SK-MEL-2) was 3.33 µM (inactive), the GI50 (SK-MEL-5) was 2.51 µM (inactive) and the GI50 (SK-OV-3) was 21.2 µM (inactive). For the same compound, the GI50 (SN12C) was 15.7 µM (inactive), the GI50 (SNB-19) was 17.4 µM (inactive) and the GI50 (SNB-75) was 14.9 µM (inactive). For the same compound, the GI50 (SR) was 4.84 µM (inactive), the GI50 (SW-620) was 12.1 µM (inactive) and the GI50 (T47D) was 19.2 µM (inactive). For the same compound, the GI50 (TK-10) was 13.3 µM (inactive), the GI50 (U-251) was 10.4 µM (inactive) and the GI50 (UACC-257) was 2.36 µM (inactive). For the same compound, the GI50 (UACC-62) was 1.98 µM (inactive) and the GI50 (UO-31) was 5.15 µM (inactive).
For `Nc1ccc2nc(-c3ccccn3)c(-c3ccccn3)nc2c1`, the GI50 (786-0) was > 100 µM (inactive), the GI50 (A498) was > 100 µM (inactive) and the GI50 (A549) was > 100 µM (inactive). The GI50 (ACHN) was > 100 µM (inactive), the GI50 (BT-549) was > 100 µM (inactive) and the GI50 (CAKI-1) was > 100 µM (inactive). For the same compound, the GI50 (CCRF-CEM) was > 100 µM (inactive), the GI50 (COLO 205) was > 100 µM (inactive) and the GI50 (DU-145) was > 100 µM (inactive). The GI50 (EKVX) was > 100 µM (inactive), the GI50 (HCC 2998) was > 100 µM (inactive) and the GI50 (HCT-116) was > 100 µM (inactive). For the same compound, the GI50 (HCT-15) was greater than 100 µM, the GI50 (HL-60) was > 100 µM (inactive) and the GI50 (HOP-92) was > 100 µM (inactive). The GI50 (Hs-578T) was > 100 µM (inactive), the GI50 (IGROV-1) was > 100 µM (inactive) and the GI50 (K562) was > 100 µM (inactive). For the same compound, the GI50 (KM12) was > 100 µM (inactive), the GI50 (LOX IMVI) was > 100 µM (inactive) and the GI50 (M14) was > 100 µM (inactive). The GI50 (MCF7) was > 100 µM (inactive), the GI50 (MDA-MB-231) was > 100 µM (inactive) and the GI50 (MDA-MB-435) was > 100 µM (inactive). The GI50 (MDA-N) was > 100 µM (inactive), the GI50 (MOLT-4) was > 100 µM (inactive) and the GI50 (Malme-3M) was > 100 µM (inactive). For the same compound, the GI50 (NCI-H226) was > 100 µM (inactive), the GI50 (NCI-H460) was > 100 µM (inactive) and the GI50 (NCI-H522) was > 100 µM (inactive). For the same compound, the GI50 (NCI/ADR-RES) was > 100 µM (inactive), the GI50 (OVCAR-3) was > 100 µM (inactive) and the GI50 (OVCAR-4) was > 100 µM (inactive). The GI50 (OVCAR-5) was > 100 µM (inactive), the GI50 (OVCAR-8) was > 100 µM (inactive) and the GI50 (PC-3) was > 100 µM (inactive). For the same compound, the GI50 (RPMI-8226) was > 100 µM (inactive), the GI50 (RXF 393) was > 100 µM (inactive) and the GI50 (SF-268) was > 100 µM (inactive). For the same compound, the GI50 (SF-295) was > 100 µM (inactive), the GI50 (SF-539) was > 100 µM (inactive) and the GI50 (SK-MEL-28) was > 100 µM (inactive). For the same compound, the GI50 (SK-MEL-2) was > 100 µM (inactive), the GI50 (SK-MEL-5) was > 100 µM (inactive) and the GI50 (SN12C) was > 100 µM (inactive). For the same compound, the GI50 (SNB-19) was > 100 µM (inactive), the GI50 (SNB-75) was > 100 µM (inactive) and the GI50 (SR) was > 100 µM (inactive). The GI50 (SW-620) was > 100 µM (inactive), the GI50 (T47D) was > 100 µM (inactive) and the GI50 (TK-10) was > 100 µM (inactive). The GI50 (U-251) was > 100 µM (inactive), the GI50 (UACC-257) was > 100 µM (inactive) and the GI50 (UACC-62) was > 100 µM (inactive). The GI50 (UO-31) was > 100 µM (inactive).
